Test results reported in patent publication US11339184B2, “Antibacterial compounds, compositions thereof, and methods using same” (priority 2019, dated 2022).
In brackets after ≈: the same amount, converted by molar mass. Read-outs that look alike come from different tables or passages of the source.

Experiments:
[1] = system: M. avium; experiment: MIC against other mycobacteria: M. avium; assay type: cell-based; conditions: Table 3, M. avium
[2] = system: M. tuberculosis H37rv; experiment: Antibiotic assay against M. tuberculosis (MIC / IC90); assay type: cell-based, Mycobacterium tuberculosis; conditions: for IC90: H37Rv
[3] = system: M. marinum; experiment: MIC against other mycobacteria: M. marinum; assay type: cell-based; conditions: Table 3, M. marinum
[4] = system: M. abscessus; experiment: MIC against other mycobacteria: M. abscessus; assay type: cell-based; conditions: Table 3, M. abscessus
[5] = system: M. smegmatis; experiment: MIC against other mycobacteria: M. smegmatis; assay type: cell-based; conditions: Table 3, M. smegmatis
[6] = system: Gram-positive bacteria, including Staphylococcus aureus, Staphylococcus epidermidis, Listeria monocytogenes and M. tuberculosis; assay type: cell-based
[7] = Table 4, Formula III derivatives, M. tuberculosis H37rv

Structure (SMILES)	MIC [1]	MIC [2]	MIC ([2]; Table 3, M. tuberculosis H37rv, Trial 2)	MIC ([2]; Table 3, M. tuberculosis H37rv, Trial 3)	MIC ([2]; Table 3, M. tuberculosis H37rv, Trial 4)	MIC [2, 7]	MIC [3]	MIC [4]	MIC [5]	IC90 [2]	activity as antibiotics against Gram-positive bacteria [6]
CO[C@H]1/C=C/O[C@@]2(C)Oc3c(C)c(O)c4c(O)c(c(/C=N/N5CCN(C)CC5)c(O)c4c3C2=O)NC(=O)/C(C)=C\C=C\[C@H](C)[C@H](O)[C@@H](C)[C@@H](O)[C@@H](C)[C@H](OC(C)=O)[C@@H]1C [Rif, rifampicin]	< 0.195 µg/mL	0.05 µg/mL (≈ 0.0608 µM)	0.31 µg/mL (≈ 0.377 µM)	0.31 µg/mL (≈ 0.377 µM)	0.31 µg/mL (≈ 0.377 µM)	< 0.02 µg/mL	> 25 µg/mL	> 25 µg/mL	> 25 µg/mL		
CC(=O)OC1C(C)C(OC2CC3OCOC3C(C)O2)/C=C/OC2(C)CC(O)c3c(c(C)c(O)c4c3C(=O)C=C(NC(=O)/C(C)=C\C=C\C(C(C)OC(=O)C(C)(C)CC(=O)O)C(O)C(C)C(O)C1C)C4=O)O2 (centres unmarked) [kanglemycin V1]										3.12 µM	active
CC(=O)OC1C(C)C(OC2CC3OCOC3C(C)O2)/C=C/OC2(C)OC3=C(C)C(=O)c4c(O)c(cc5c4C3=C2OCO5)NC(=O)/C(C)=C\C=C\C(C(C)OC(=O)C(C)(C)CC(=O)O)C(O)C(C)C(O)C1C (centres unmarked) [kanglemycin V2]						0.08 µg/mL (≈ 0.0803 µM)				1.56 µM	active
